In brackets after ≈: the same amount, converted by molar mass.
Experiments:
Assay type in all cases: cell-based
[1] = system: Mouse abdominal cavity macrophages; test: Suppression of macrophage (microglia model) activation caused by β-amyloid, nitrogen monoxide production (Griess); conditions: Aβ1-42 20 μg/ml, 72 hours, mouse interferon γ 250 U/ml and polymyxin B 10 μg/ml, NO production, absorbance at 570 nm
Procedure: (§1) Suppression of microglia activation caused by β-amyloid Mouse abdominal cavity macrophages were prepared as follows for use as a model for microglia. A mouse (C3H/He, N, male, 7-10 weeks old: Nippon SLC) was subjected to cervical vertebrae dislocation then sprayed with 70% ethanol, the skin of the abdomen was cut open leaving the muscularis, from 5 to 7 ml of PBS (phosphate buffered saline) were injected into the abdominal cavity using a 24 G injection needle, the back was squeezed firmly, then injection solution was drawn from the abdominal cavity using a 23 G injection needle. The cells in the collected solution were centrifugally sedimented (900 rpm, 5 minutes) and washed using PBS, then 8×10^4/well were inoculated onto a 96-well microplate in culture solution (DMEM (Sigma), 10% FBS (Gibco), 100 U/ml penicillin+100 μg/ml streptomycin (Sigma)) and cultured in a 5% CO2/95% air incubator at 37° C. The amount of nitrogen monoxide produced was taken as an indicator of macrophage activation. Specifically, the macrophages were incubated for 72 hours in the presence of 1) Aβ1-42 (20 μg/ml: Sigma), and 2) Aβ1-42 and the test compound, then 50 μl of Griess reagent (0.1% N-(1-naphthyl)ethylenediamine (Sigma), 1% sulphanilamide (Sigma), 3% H3PO4) were added to 50 μl of the supernatant, and the light absorbance at 570 nm was measured. It should be noted that this experiment was conducted in culture solution containing mouse interferon γ (250 U/ml: genzyme techne) and polymyxin B (10 μg/ml: Sigma). Also, the same operations were performed using zymosan A (140 ng/ml: Molecular Probes) or LPS (500 pg/ml: Sigma) instead of Aβ, as controls. For LPS, culture medium containing only mouse interferon γ was used.
(§2) The concentration when the absorbance in the presence of 2) Aβ and test compound was 50% of the absorbance when 1) only Aβ 1-42 was added was taken as IC50, and the activity of the compound was appraised in terms of this value.

[2] = system: Mouse abdominal cavity macrophages; test: Suppression of macrophage activation caused by zymosan A (control), nitrogen monoxide production (Griess); conditions: zymosan A 140 ng/ml instead of Aβ, 72 hours, mouse interferon γ and polymyxin B, NO production, read-out: IC50 (μg/ml) zymosan A
Procedure: as §1, §2

[3] = system: Mouse abdominal cavity macrophages; test: Suppression of macrophage activation caused by LPS (control), nitrogen monoxide production (Griess); conditions: LPS 500 pg/ml instead of Aβ, 72 hours, culture medium containing only mouse interferon γ, NO production, read-out: IC50 (μg/ml) LPS
Procedure: as §1, §2

IC50 [1] [mg/L]	IC50 [2] [µg/mL]	IC50 [3] [µg/mL]	SMILES
3.8 (≈ 12.8 µM)	> 5	> 5	Cc1nc2ncnn2c2c1ccn2Cc1ccccc1Cl [Compound G]
5 (≈ 17 µM)	> 5	> 5	Cc1nc2ncnn2c2c1CCN2C(C)(C)c1ccccc1 [Compound K]
3.2 (≈ 11.3 µM)	> 5	> 5	Cc1nc2ncnn2c2c1CCN2Cc1ccccc1F [Compound E]
0.4 (≈ 1.31 µM)	> 5	> 5	c1ccc(CCN2CCc3c(C4CC4)nc4ncnn4c32)cc1 [Compound A]
4.3 (≈ 16.2 µM)	> 5	> 5	Cc1nc2ncnn2c2c1CCN2Cc1ccccc1 [Compound I]
2.3 (≈ 7.74 µM)	> 5	> 5	Cc1nc2ncnn2c2c1CC(C)N2Cc1ccccc1F (stereo not drawn) [Compound D]
4 (≈ 15.1 µM)	> 5	> 5	Cc1nc2ccnn2c2c1CCN2Cc1ccccc1 [Compound H]
3.6 (≈ 11.5 µM)	> 5	> 5	Cc1nc2ncnn2c2c1CC(C)N2Cc1ccccc1Cl (stereo not drawn) [Compound F]
5 (≈ 16.7 µM)	> 5	> 5	Cc1nc2ncnn2c2c1CCN2Cc1ccccc1Cl [Compound J]
0.5 (≈ 1.79 µM)	> 5	> 5	Cc1nc2ncnn2c2c1CCN2CCc1ccccc1 [Compound B]
0.4 (≈ 1.43 µM)	> 5	> 5	Cc1nc2ncnn2c2c1CCN2C(C)c1ccccc1 (stereo not drawn) [Compound C]

Reference: patent US8288399B2, “Medicine containing pyrimidine derivative” (BTG International Limited, priority 2001, dated 2012)
